The record followed here is patent US4678792A, “Quaternary 3,4-dihydro-isoquinolinium salts” (Dr. Karl Thomae GmbH, priority 1984, dated 1987).

What is called inhibition is the relative decrease from the control value, in per cent.

Read-outs that look alike come from different tables or passages of the source.

Data set [1] can be described thus: Tolerability: toxic side effects at the maximum dosages administered. It counts as in vivo.
For a further data set, the system named is Thrombocyte aggregation. Briefly: Antithrombotic activity: collagen-induced thrombocyte aggregation in platelet-rich plasma after oral administration (Born and Cross). It is filed as in vivo, rat. The settings on record: for inhibition at 10 mg/kg / inhibition at 5 mg/kg: po, read-out: Percentage inhibition of aggregation. The procedure: 1. Antithrombotic activity (see BORN and CROSS, J. Physiol. 170, 397 (1964)):
Groups of three male rats weighing about 500 g are given the test substances, suspended in 1% tylose (A and B) or in distilled water (C), in a volume of 0.2 ml per 100 g of the weight of the animal, by esophageal tube. Shortly before the blood samples are taken (1 hour after administration of the substance) the animals are anesthetised with sodium pentobarbital (50 mg/kg i.p.). After the abdomen has been opened up, the required quantity of blood is taken by puncturing the aorta.
The blood is treated with sodium citrate (0.2% final concentration) to prevent it coagulating. Since the aggregation before and after administration of the substance in rats cannot be measured in the same animal, sets of animals from which the plasma has been pooled are compared. In this way, multiple measurements can be made.
Thrombocyte aggregation is measured in platelet-rich plasma (PRP) (quantity of plasma for each test: 1 ml). In order to obtain the PRP, the blood is centrifuged for 10 minutes at 1,000 to 1,200 revolutions per minute (approx. 150 g). The low-platelet plasma for calibrating the aggregometer is obtained by centrifuging (4,000 rpm for 10 minutes).
The pattern of the decrease in optical density of the platelet suspension after the addition of collagen is measured photometrically and recorded. The height of the curve in mm measured at the moment of maximum light transmittance is the measurement of the intensity of aggregation. A 6-channel aggregometer is used for the measurements.
The quantity of collagen (2 to 5 μl/ml of plasma) is such that an irreversible reaction curve is obtained.
The sets of animals treated with the substance are compared with untreated control groups.

A further data set relates to mouse. The experiment in a line: Approximate acute toxicity on the mouse after oral administration. It is filed as in vivo. Particulars: 250 mg/kg oral, group of 10 animals, observation period of 14 days. As for the experimental part:
The approximate acute toxicity of substance B is tested on the mouse after oral administration of a dosage of 250 mg/kg to a group of 10 animals.

[2] abbreviates: maximum dosages administered (10 mg/kg p.o.).
Setting [3] is: 10 mg/kg p.o., rat, 1 hour after administration, collagen, control 130 (A), 110 (B).
Where [4] appears, read: 5 mg/kg p.o., rat, 1 hour after administration, collagen, control 108 (B), 113 (C).

For the compound `COc1cc2c(cc1OC)CC[N+](Cc1ccccc1Cl)=C2.O=S(=O)([O-])O` [A, 2-(2-Chlorobenzyl)-6,7-dimethoxy-3,4-dihydro-isoquinolinium hydrogensulphate], the toxic side effects result in data set [1] (setting [2]) is given as “do not show any toxic side effects”. In addition, the “Intensity of Aggregation, Height of curve (opt. density), Substance” value (“Intensity of Aggregation” for short) with Thrombocyte aggregation (setting [3]) came to 69 mm. Besides, the inhibition at 10 mg/kg in the data set on Thrombocyte aggregation (Rattus norvegicus, 1 h) was determined as 47%.
With `Clc1ccccc1C[N+]1=Cc2ccccc2CC1.O=S(=O)([O-])O` [B, 2-(2-Chlorobenzyl)-3,4-dihydro-isoquinolinium hydrogensulphate], in data set [1] (setting [2]), the toxic side effects result is on record as “do not show any toxic side effects”. Further, the “Acute toxicity, deaths” value in the data set with mouse is listed as “None of the animals died”. The “Intensity of Aggregation” value in the data set with Thrombocyte aggregation (setting [4]) was found to be 0 mm. Further, the “Intensity of Aggregation” value with Thrombocyte aggregation (setting [3]) was 0 mm. For the same compound, in the data set with Thrombocyte aggregation (Rattus norvegicus, 1 h), the inhibition at 5 mg/kg worked out at 100% and the inhibition at 10 mg/kg came to 100%.
On to `COc1cc2c(cc1OC)CC[N+](Cc1cc(OC)c(OC)c(OC)c1)=C2.[Cl-]` [C, 2-(3,4,5-Trimethoxybenzyl)-6,7-dimethoxy-3,4-dihydro-isoquinolinium chloride], for which the toxic side effects result in data set [1] (in vivo, po, 10 mg/kg) is on record as “do not show any toxic side effects”. For the same compound, the “Intensity of Aggregation” value in the data set on Thrombocyte aggregation (setting [4]) is listed as 10 mm. Besides, the inhibition at 5 mg/kg with Thrombocyte aggregation (5 mg/kg p.o., rat, 1 hour after administration, collagen) came out at 89%.
